From the supplement of paper PMC10307832

Columns and labels:
Assay in all cases: relative viability (nuclei count vs DMSO), 5 days (fraction); higher = more cells survive
[1] = tested on: EPLC-272H
Outline: (§1)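 Each reported value is a median over duplicate plates. It expresses relative viability: treated-well nuclei count divided by vehicle-well nuclei count. Lung cancer cell lines in 1536-well plates were dosed by pin tool a day after seeding, alone with one drug or with a fixed anchor-drug dose plus five library-drug doses (not always all listed) in √10 steps, and nuclei were counted after 5 days.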

[2] = tested on: NCI-H1915
Outline: as §1

[3] = tested on: A-427
Outline: as §1

[4] = tested on: SK-MES-1
Outline: as §1

[5] = tested on: HOP-62
Outline: as §1

[6] = tested on: NCI-H2087
Outline: as §1

[7] = tested on: NCI-H661
Outline: as §1

[8] = tested on: LOU-NH91
Outline: as §1

[9] = tested on: HCC-366
Outline: as §1

[10] = tested on: EKVX
Outline: as §1

[11] = tested on: HCC-78
Outline: as §1

[12] = tested on: NCI-H2023
Outline: as §1

[13] = tested on: NCI-H1650
Outline: as §1

[14] = tested on: COR-L23
Outline: as §1

[15] = tested on: NCI-H596
Outline: as §1

[16] = tested on: NCI-H650
Outline: as §1

[17] = tested on: NCI-H838
Outline: as §1

[18] = tested on: HCC-44
Outline: as §1

[19] = tested on: NCI-H358
Outline: as §1

[20] = tested on: ChaGo-K-1
Outline: as §1

[21] = tested on: NCI-H1734
Outline: as §1

[22] = tested on: NCI-H1395
Outline: as §1

[23] = tested on: NCI-H3122
Outline: as §1

**Q.** For `O=C(O)CCCCC(CCSCc1ccccc1)SCc1ccccc1` (stereo not drawn) [CPI-613] + CC(=O)Nc1cccc(-n2c(=O)n(C3CC3)c(=O)c3c(Nc4ccc(I)cc4F)n(C)c(=O)c(C)c32)c1 [Trametinib] (partner 0.02 µM), which relative viability ([1]; first compound 5 µM) is on record?
**A.** 0.233

**Q.** What about the relative viability ([1]; first compound 15.81 µM) of the same molecule?
**A.** 0.232

**Q.** What about the relative viability ([1]; first compound 50 µM) of the same molecule?
**A.** 0.29

**Q.** What about the relative viability ([1]; first compound 158.11 µM) of the same molecule?
**A.** 0.222

**Q.** And the relative viability ([1]; first compound 500 µM)?
**A.** 0.268

**Q.** What about the relative viability ([2]; first compound 5 µM) of the same molecule?
**A.** 0.292

**Q.** And the relative viability ([2]; first compound 15.81 µM)?
**A.** 0.284

**Q.** And the relative viability ([2]; first compound 50 µM)?
**A.** 0.299

**Q.** And the relative viability ([2]; first compound 158.11 µM)?
**A.** 0.216

**Q.** And the relative viability ([2]; first compound 500 µM)?
**A.** 0.148

**Q.** What about the relative viability ([3]; first compound 5 µM) of the same molecule?
**A.** 0.716

**Q.** What about the relative viability ([3]; first compound 15.81 µM) of the same molecule?
**A.** 0.766

**Q.** What about the relative viability ([3]; first compound 50 µM) of the same molecule?
**A.** 0.682

**Q.** And the relative viability ([3]; first compound 158.11 µM)?
**A.** 0.476

**Q.** And the relative viability ([3]; first compound 500 µM)?
**A.** 0.391

**Q.** And the relative viability ([4]; first compound 5 µM)?
**A.** 0.534

**Q.** What about the relative viability ([4]; first compound 15.81 µM) of the same molecule?
**A.** 0.49

**Q.** And the relative viability ([4]; first compound 50 µM)?
**A.** 0.523

**Q.** And the relative viability ([4]; first compound 158.11 µM)?
**A.** 0.201

**Q.** And the relative viability ([4]; first compound 500 µM)?
**A.** 0.132

**Q.** What about the relative viability ([5]; first compound 5 µM) of the same molecule?
**A.** 0.394

**Q.** And the relative viability ([5]; first compound 15.81 µM)?
**A.** 0.402

**Q.** And the relative viability ([5]; first compound 50 µM)?
**A.** 0.351

**Q.** What about the relative viability ([5]; first compound 158.11 µM) of the same molecule?
**A.** 0.267

**Q.** And the relative viability ([5]; first compound 500 µM)?
**A.** 0.129

**Q.** What about the relative viability ([6]; first compound 5 µM) of the same molecule?
**A.** 0.207

**Q.** And the relative viability ([6]; first compound 15.81 µM)?
**A.** 0.16

**Q.** And the relative viability ([6]; first compound 50 µM)?
**A.** 0.159

**Q.** What about the relative viability ([6]; first compound 158.11 µM) of the same molecule?
**A.** 0.0653

**Q.** What about the relative viability ([6]; first compound 500 µM) of the same molecule?
**A.** 0.003

**Q.** What about the relative viability ([7]; first compound 5 µM) of the same molecule?
**A.** 0.528

**Q.** And the relative viability ([7]; first compound 15.81 µM)?
**A.** 0.532

**Q.** What about the relative viability ([7]; first compound 50 µM) of the same molecule?
**A.** 0.541

**Q.** And the relative viability ([7]; first compound 158.11 µM)?
**A.** 0.263

**Q.** What about the relative viability ([7]; first compound 500 µM) of the same molecule?
**A.** 0.133

**Q.** What about the relative viability ([8]; first compound 5 µM) of the same molecule?
**A.** 0.767

**Q.** And the relative viability ([8]; first compound 15.81 µM)?
**A.** 0.723

**Q.** What about the relative viability ([8]; first compound 50 µM) of the same molecule?
**A.** 0.775

**Q.** And the relative viability ([8]; first compound 158.11 µM)?
**A.** 0.775

**Q.** What about the relative viability ([8]; first compound 500 µM) of the same molecule?
**A.** 0.674

**Q.** And the relative viability ([9]; first compound 5 µM)?
**A.** 0.367

**Q.** What about the relative viability ([9]; first compound 15.81 µM) of the same molecule?
**A.** 0.321

**Q.** And the relative viability ([9]; first compound 50 µM)?
**A.** 0.29

**Q.** And the relative viability ([9]; first compound 158.11 µM)?
**A.** 0.12

**Q.** And the relative viability ([9]; first compound 500 µM)?
**A.** 0.0064

**Q.** What about the relative viability ([10]; first compound 5 µM) of the same molecule?
**A.** 0.287

**Q.** What about the relative viability ([10]; first compound 15.81 µM) of the same molecule?
**A.** 0.272

**Q.** What about the relative viability ([10]; first compound 50 µM) of the same molecule?
**A.** 0.343

**Q.** And the relative viability ([10]; first compound 500 µM)?
**A.** 0.325

**Q.** What about the relative viability ([11]; first compound 15.81 µM) of the same molecule?
**A.** 0.729

**Q.** And the relative viability ([11]; first compound 50 µM)?
**A.** 0.788

**Q.** And the relative viability ([11]; first compound 158.11 µM)?
**A.** 0.714

**Q.** And the relative viability ([11]; first compound 500 µM)?
**A.** 0.716

**Q.** And the relative viability ([12]; first compound 5 µM)?
**A.** 0.57

**Q.** What about the relative viability ([12]; first compound 15.81 µM) of the same molecule?
**A.** 0.605

**Q.** What about the relative viability ([12]; first compound 50 µM) of the same molecule?
**A.** 0.499

**Q.** What about the relative viability ([12]; first compound 158.11 µM) of the same molecule?
**A.** 0.0445

**Q.** And the relative viability ([12]; first compound 500 µM)?
**A.** 0.0048

**Q.** And the relative viability ([13]; first compound 5 µM)?
**A.** 0.546

**Q.** And the relative viability ([13]; first compound 15.81 µM)?
**A.** 0.548

**Q.** What about the relative viability ([13]; first compound 50 µM) of the same molecule?
**A.** 0.537

**Q.** And the relative viability ([13]; first compound 158.11 µM)?
**A.** 0.168

**Q.** And the relative viability ([13]; first compound 500 µM)?
**A.** 0.0145

**Q.** What about the relative viability ([14]; first compound 5 µM) of the same molecule?
**A.** 0.651

**Q.** And the relative viability ([14]; first compound 15.81 µM)?
**A.** 0.524

**Q.** What about the relative viability ([14]; first compound 50 µM) of the same molecule?
**A.** 0.63

**Q.** And the relative viability ([14]; first compound 158.11 µM)?
**A.** 0.198

**Q.** What about the relative viability ([14]; first compound 500 µM) of the same molecule?
**A.** 0.0522

**Q.** And the relative viability ([15]; first compound 5 µM)?
**A.** 0.823

**Q.** And the relative viability ([15]; first compound 15.81 µM)?
**A.** 0.732

**Q.** And the relative viability ([15]; first compound 50 µM)?
**A.** 0.765

**Q.** And the relative viability ([15]; first compound 158.11 µM)?
**A.** 0.34

**Q.** What about the relative viability ([15]; first compound 500 µM) of the same molecule?
**A.** 0.036

**Q.** What about the relative viability ([16]; first compound 5 µM) of the same molecule?
**A.** 0.969

**Q.** And the relative viability ([16]; first compound 15.81 µM)?
**A.** 0.994

**Q.** What about the relative viability ([16]; first compound 50 µM) of the same molecule?
**A.** 0.849

**Q.** What about the relative viability ([16]; first compound 158.11 µM) of the same molecule?
**A.** 0.929

**Q.** What about the relative viability ([16]; first compound 500 µM) of the same molecule?
**A.** 0.889

**Q.** And the relative viability ([17]; first compound 5 µM)?
**A.** 0.514

**Q.** And the relative viability ([17]; first compound 15.81 µM)?
**A.** 0.461

**Q.** And the relative viability ([17]; first compound 50 µM)?
**A.** 0.468

**Q.** And the relative viability ([17]; first compound 158.11 µM)?
**A.** 0.232

**Q.** And the relative viability ([17]; first compound 500 µM)?
**A.** 0.065

**Q.** What about the relative viability ([18]; first compound 5 µM) of the same molecule?
**A.** 1.04

**Q.** What about the relative viability ([18]; first compound 15.81 µM) of the same molecule?
**A.** 1.03

**Q.** What about the relative viability ([18]; first compound 50 µM) of the same molecule?
**A.** 1.08

**Q.** And the relative viability ([18]; first compound 158.11 µM)?
**A.** 0.649

**Q.** What about the relative viability ([18]; first compound 500 µM) of the same molecule?
**A.** 0.62

**Q.** And the relative viability ([19]; first compound 5 µM)?
**A.** 0.132

**Q.** What about the relative viability ([19]; first compound 15.81 µM) of the same molecule?
**A.** 0.133

**Q.** And the relative viability ([19]; first compound 50 µM)?
**A.** 0.132

**Q.** What about the relative viability ([19]; first compound 158.11 µM) of the same molecule?
**A.** 0.0921

**Q.** What about the relative viability ([19]; first compound 500 µM) of the same molecule?
**A.** 0.0459

**Q.** What about the relative viability ([20]; first compound 5 µM) of the same molecule?
**A.** 0.853

**Q.** And the relative viability ([20]; first compound 15.81 µM)?
**A.** 0.876

**Q.** What about the relative viability ([20]; first compound 50 µM) of the same molecule?
**A.** 0.847

**Q.** What about the relative viability ([20]; first compound 158.11 µM) of the same molecule?
**A.** 0.29

**Q.** And the relative viability ([20]; first compound 500 µM)?
**A.** 0.391

**Q.** What about the relative viability ([21]; first compound 5 µM) of the same molecule?
**A.** 0.615

**Q.** What about the relative viability ([21]; first compound 15.81 µM) of the same molecule?
**A.** 0.631

**Q.** What about the relative viability ([21]; first compound 50 µM) of the same molecule?
**A.** 0.593

**Q.** What about the relative viability ([21]; first compound 158.11 µM) of the same molecule?
**A.** 0.482

**Q.** And the relative viability ([21]; first compound 500 µM)?
**A.** 0.101

**Q.** And the relative viability ([22]; first compound 5 µM)?
**A.** 0.901

**Q.** And the relative viability ([22]; first compound 15.81 µM)?
**A.** 1.05

**Q.** And the relative viability ([22]; first compound 50 µM)?
**A.** 0.928

**Q.** What about the relative viability ([22]; first compound 158.11 µM) of the same molecule?
**A.** 1.04

**Q.** What about the relative viability ([22]; first compound 500 µM) of the same molecule?
**A.** 0.917

**Q.** What about the relative viability ([23]; first compound 5 µM) of the same molecule?
**A.** 0.232

**Q.** And the relative viability ([23]; first compound 15.81 µM)?
**A.** 0.25

**Q.** What about the relative viability ([23]; first compound 50 µM) of the same molecule?
**A.** 0.295

**Q.** What about the relative viability ([23]; first compound 158.11 µM) of the same molecule?
**A.** 0.215

**Q.** And the relative viability ([23]; first compound 500 µM)?
**A.** 0.227
